# Experimental data: patent US20090048229A1, “Methods for promoting wakefulness” (priority 2007, published 2009)
# Where two headings read alike, the source gives them in different places.
# How the values were obtained:
# AChE = AChE (Homo sapiens, UniProt P22303); format: biochemical
# BuChE = BuChE (Homo sapiens, UniProt P06276); assay: In vitro screening assay, BuChE inhibition; format: biochemical
# Source text: An in vitro screening assay with various conjugates was completed according to the methods described in Ellman G L et al., Biochem Pharmacol., 7:88-95 (1961) and in Nadarajah B, J. Anal. Toxicol., 16:192-193 (1992), both of which are herein incorporated by reference in their entireties. The assay method was completed according to the following: […]
# [1] = test system: male CD IGS (Sprague Dawley derived) rats; assay: Induction of hypothermia after subcutaneous administration; format: in vivo, rat; settings: for Induction of hypothermia MED (mg/kg s.c.): hypothermia = fall in temperature of >0.5° C.; for fall in body temperature: subcutaneous administration
# Source text: Cholinergic agonists cause hypothermia through a central mechanism of action (Freedman et al, 1989. Direct measurement of muscarinic agents in the central nervous system of mice using ex vivo binding. Eur. J. Pharmacol. 174:253-260). […] Since a premise of the present invention is that carbomyl esters would liberate the conjugated amine in the CNS only after inhibition of acetylcholinesterase, induction of hypothermia provides a useful correlation with the acetylcholinesterase inhibition detected in vitro and in vivo.
# Hypothermia was defined as a fall in temperature of >0.5° C.
# Hypothermia is a marker of CNS penetration for ACHE inhibitors.
# (§1) If less soluble, the maximum injection volume was 5 mL/kg.
# (§2) Baseline temperatures were taken just before injection.
# [2] = target: T1, human recombinant acetylcholinesterase (Homo sapiens, UniProt P22303); assay: biochemical; settings: for inhibition at 10 µM: read-out: Inhibition of AChE (%) 10 μM
# T1 construct: purchased Sigma Chemical Co (St. Louis, Mo.) C1682
# Method: All reagents employed in this experiment were of analytical grade. Acetylthiocholine iodide and 5,5′-dithiobis-(2-nitro)benzoic acid (DTNB) and human recombinant acetylcholinesterase (C1682) were purchased from Sigma Chemical Co (St. Louis, Mo.).
# The enzyme, compound or stigmine and buffer were preincubated for 30 minutes. At the end of the preincubation period, the substrate acetylthiocholine was added. The final assay mixture contained 10 mM Tris-buffer (pH 8), 0.3 mM Acetylthiocholine and 0.33 mM DTNB and 0.08 U/ml enzyme. At least five (5) different concentrations of the compound or stigmine were assayed per IC50 experiment.
# Hydrolysis of acetylthiocholine was monitored indirectly by measurement of the formation of the conjugate between thiocholine and DTNB.
# [3] = Dose range for cholinergic effects / max tolerated dose; format: in vivo, rat; settings: s.c., rats
# Method: as §1, §2
# butylryl cholinesterase = butylryl cholinesterase (Homo sapiens, UniProt P06276); assay: Inhibition of butyrylcholinesterase; format: biochemical; settings: read-out: Inhibition of BuChE (%) 10 μM
# Method: The inhibition of butylryl cholinesterase was determined using methods known in the art e.g., Alcala Molel M. et al. (2003) Characterization of the anticholinesterase activity of two new tacrin-huperzine A hybrids. Neuropharmacology, 44 (6), 749-755.
# male Wistar rats = assay: Wake promotion (EEG/EMG sleep-wake, locomotor activity, body temperature); format: in vivo, rat; settings: for duration of wakefulness: administered 5 hours after lights on (CT-5), FIG. 2
# Method: Test compounds in various dose ranges or vehicle were administered to male Wistar rats 5 hours after lights on (CT-5). EEG, EMG, locomotor activity, drink- and food-related activity, and body temperature were concurrently monitored for 30 hr before and after treatment from rats living in separate isolated recording chambers. Sleep-wake discriminations were carried out using SCORE2004™, proprietary real-time hardware and software technology of Hypnion, Inc. (Lexington, Mass.). Comparisons were made between the reference compounds: d-amphetamine, rivastigmine, modafinil, and the following carbamoyl ester test compounds: […]
# [4] = 30 min preincubation, 25° C., read-out: Inhibition of AChE IC50
# BuChE, sequence (P06276 29-602): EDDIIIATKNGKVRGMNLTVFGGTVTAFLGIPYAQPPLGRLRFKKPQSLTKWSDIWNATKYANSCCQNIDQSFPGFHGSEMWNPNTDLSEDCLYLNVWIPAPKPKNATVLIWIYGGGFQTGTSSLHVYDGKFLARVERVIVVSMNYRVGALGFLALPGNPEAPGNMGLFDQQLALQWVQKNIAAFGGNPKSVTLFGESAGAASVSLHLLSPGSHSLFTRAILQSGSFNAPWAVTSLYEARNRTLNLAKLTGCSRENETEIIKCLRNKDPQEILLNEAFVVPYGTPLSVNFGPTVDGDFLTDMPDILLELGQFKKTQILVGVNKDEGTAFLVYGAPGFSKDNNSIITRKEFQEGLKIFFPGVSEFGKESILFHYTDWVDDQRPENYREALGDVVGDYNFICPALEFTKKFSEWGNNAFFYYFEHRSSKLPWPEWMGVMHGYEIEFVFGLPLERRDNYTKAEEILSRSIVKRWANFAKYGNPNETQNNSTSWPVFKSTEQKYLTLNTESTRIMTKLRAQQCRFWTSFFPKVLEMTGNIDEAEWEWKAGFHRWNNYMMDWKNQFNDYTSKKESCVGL
# butylryl cholinesterase, sequence (P06276 29-602): as above
# AChE, sequence (P22303 32-614): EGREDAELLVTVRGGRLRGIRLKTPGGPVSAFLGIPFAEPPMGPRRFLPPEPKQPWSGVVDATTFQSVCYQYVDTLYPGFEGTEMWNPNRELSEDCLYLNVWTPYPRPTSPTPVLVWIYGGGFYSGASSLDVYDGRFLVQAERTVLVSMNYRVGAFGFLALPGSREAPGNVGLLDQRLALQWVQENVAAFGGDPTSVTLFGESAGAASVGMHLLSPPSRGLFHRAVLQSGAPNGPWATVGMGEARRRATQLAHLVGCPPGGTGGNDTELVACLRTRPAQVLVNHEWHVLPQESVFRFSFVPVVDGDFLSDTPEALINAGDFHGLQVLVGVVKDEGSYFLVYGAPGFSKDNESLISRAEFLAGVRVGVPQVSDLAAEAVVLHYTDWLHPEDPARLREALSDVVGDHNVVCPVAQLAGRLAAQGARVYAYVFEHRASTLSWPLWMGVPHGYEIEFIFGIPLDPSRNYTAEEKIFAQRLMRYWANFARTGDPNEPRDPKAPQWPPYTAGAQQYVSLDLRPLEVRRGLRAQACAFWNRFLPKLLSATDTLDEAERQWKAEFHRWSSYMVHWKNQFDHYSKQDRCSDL
# T1 sequence (P22303 32-614): as above
SMILES,AChEI (%) 1 μM (AChE; 1 μM) [%],AChEI (%) 10 μM (AChE; 10 μM) [%],BuChEI (%) 10 μM (BuChE; 10 μM) [%],IC50 [2] [nM],Max Tolerated Dose [3],other results
"C[C@@H](c1cccc(OC(=O)N[C@H]2C[C@@H]2c2ccccc2)c1)N(C)C (stereo in doubt) [Compound 2, S-riva-tranylcypromine]",84,97,67,200,30,"BuChEI (%) 1 μM (BuChE): 23%; Hypothermia MED ([1]; s.c., rats): 10 mg/kg"
"C[C@@H](c1cccc(OC(=O)N2CCN(C3=Nc4ccccc4Oc4ccc(Cl)cc43)CC2)c1)N(C)C [Compound 3, S-riva-amoxapine]",–,16,6,20900,≧100,"Hypothermia MED ([1]; s.c., rats): 10 mg/kg"
"C[C@@H](c1cccc(OC(=O)N(C)CCCN2c3ccccc3CCc3ccccc32)c1)N(C)C [Compound 4, S-riva-desipramine]",91,99,60,200,≧100,"BuChEI (%) 1 μM (BuChE): 16%; Hypothermia MED ([1]; s.c., rats): 3 mg/kg"
"Cc1ccccc1O[C@H](CCN(C)C(=O)Oc1cccc([C@H](C)N(C)C)c1)c1ccccc1 [Compound 5, S-riva-atomoxetine]",29,89,14,–,≧100,"Hypothermia MED (mg/kg) ([1]; s.c., rats): ≦1 mg/kg"
"C[C@@H](c1cccc(OC(=O)N(C)CCC=C2c3ccccc3CCc3ccccc32)c1)N(C)C [Compound 5A, S-riva-nortriptyline]",81,99,55,500,–,BuChEI (%) 1 μM (BuChE): 24%
"C[C@@H](c1cccc(OC(=O)N(C)CCCC2c3ccccc3C=Cc3ccccc32)c1)N(C)C [Compound 6, S-riva-protriptyline]",81,99,53,500,>100,"BuChEI (%) 1 μM (BuChE): 16%; Hypothermia MED ([1]; s.c., rats): 100 mg/kg"
"C[C@@H](c1cccc(OC(=O)N(C)CCC(Oc2ccc(C(F)(F)F)cc2)c2ccccc2)c1)N(C)C (some centres unmarked) [Compound 7A, S-riva-fluoxetine]",11,76,15,4800,≧100,"Hypothermia MED ([1]; s.c., rats): 3 mg/kg"
"COCCCC/C(=N\OCCNC(=O)Oc1cccc([C@H](C)N(C)C)c1)c1ccc(C(F)(F)F)cc1 [Compound 8, S-riva-fluvoxamine]",17,76,6,6100,–,–
"C[C@@H](c1cccc(OC(=O)N2CC[C@@H](c3ccc(F)cc3)[C@H](COc3ccc4c(c3)OCO4)C2)c1)N(C)C [Compound 9A, S-riva-paroxetine]",9,69,4,9500,–,–
"C[C@@H](c1cccc(OC(=O)N(C)CC[C@H](Oc2cccc3ccccc23)c2cccs2)c1)N(C)C [Compound 10, S-riva-duloxetine]",88,100,36,200 to 500,–,–
"C#CCN(C(=O)Oc1cccc([C@H](C)N(C)C)c1)[C@H](C)Cc1ccccc1 [Compound 11, S-riva-desmethylselegiline]",13,52,17,–,–,–
"C[C@@H](c1cccc(OC(=O)N(C)[C@@H](C)Cc2ccccc2)c1)N(C)C [Compound 13, S-riva-d-methamphetamine]",51,97,95,–,–,"inhibition at 10 µM (butylryl cholinesterase): 95%; duration of wakefulness (male Wistar rats): dose-related increase in wakefulness; BuChEI (%) 1 μM (BuChE): 25%; Induction of hypothermia MED (mg/kg s.c.) ([1]; s.c.): 10 mg/kg s.c.; fall in body temperature [1]: dose-related-related fall in body temperature; IC50 [2, 4]: 1100 nM; inhibition at 10 µM [2]: 97%"
"C[C@@H](Cc1ccccc1)NC(=O)Oc1ccc2c(c1)[C@]1(C)CCN(C)[C@@H]1N2C [Compound 14, Physo-d-amphetamine]",45,94,28,–,–,inhibition at 10 µM (butylryl cholinesterase): 28%; inhibition at 10 µM [2]: 94%
"COc1ccccc1CC(C)N(C)C(=O)Oc1cccc([C@H](C)N(C)C)c1 (some centres unmarked) [Compound 15, S-riva-methoxyphenamine]",49,95,30,1100,–,inhibition at 10 µM (butylryl cholinesterase): 30%; inhibition at 10 µM [2]: 95%
"CC(CC1CCCCC1)N(C)C(=O)Oc1cccc([C@H](C)N(C)C)c1 (some centres unmarked) [Compound 16, S-riva-propylhexedrine]",–,–,–,900,≧100,"Hypothermia MED ([1]; s.c., rats): 10 mg/kg"
"C#CCN(C(=O)Oc1cccc([C@@H](C)N(C)C)c1)[C@H](C)Cc1ccccc1 [Compound 17, R-riva-desmethylselegiline]",–,31,12,–,–,–
"C#CCN(C(=O)Oc1ccc2c(c1)[C@]1(C)CCN(C)[C@@H]1N2C)[C@H](C)Cc1ccccc1 [Compound 18, Physo-desmethylselegiline]",–,37,8,–,–,–
"C[C@@H](Cc1ccccc1)NC(=O)Oc1cccc([C@H](C)N(C)C)c1 [Compound 20, S-riva-d-amphetamine]",35,76,20,–,–,"inhibition at 10 µM (butylryl cholinesterase): 20%; duration of wakefulness (male Wistar rats): dose-related increase in wakefulness; Induction of hypothermia MED (mg/kg s.c.) ([1]; s.c.): ≦1 mg/kg s.c.; fall in body temperature [1]: dose-related-related fall in body temperature; IC50 [2, 4]: 3100 nM; inhibition at 10 µM [2]: 76%"
"CN1CC[C@@]2(C)c3cc(OC(=O)Nc4ccccc4)ccc3N(C)[C@@H]12 [Phenserine, reference compound]",–,–,–,–,–,AChEI (%) 1 μM (AChE): 93%; AChEI (%) 10 μM (AChE): 99%; BuChEI (%) 10 μM (BuChE): 42%
"C[C@H](N)Cc1ccccc1 [d-amphetamine, reference compound]",–,–,–,–,–,effect on body temperature (male Wistar rats; FIG. 4): increase in body temperature (hyperthermia); duration of wakefulness (male Wistar rats): increased the duration of wakefulness
"CN[C@@H](C)Cc1ccccc1 [d-methamphetamine, reference compound]",–,–,–,–,–,locomotor hyperactivity / stimulant activity (male Wistar rats; FIG. 5): locomotor hyperactivity
"NC(=O)C[S+]([O-])C(c1ccccc1)c1ccccc1 (centres unmarked) [modafinil, reference compound]",–,–,–,–,–,duration of wakefulness (male Wistar rats): increased the duration of wakefulness
